The results in this text go back to ChEMBL document CHEMBL3044884, “Effect of 6-methoxybenzoxazolin-2-one (MBOA) on the reproduction rate of the grain aphid (Sitobion avenae F.)” (2006).

Holding throughout (type): functional
The test system of experiment [1] is Sitobion avenae. The experiment is described as follows: Insecticidal activity against 1 to 3 day old Sitobion avenae apterous virginoparous nymphs raised on artificial diet exposed to compound at 0.2 mM assessed as intrinsic reproduction rate of increase measured after 4 weeks (reference value: 0.00162 intrinsic reproduction rate of increase).
The subject of experiment [2] is Sitobion avenae. The experiment can be described thus: Insecticidal activity against 1 to 3 day old Sitobion avenae apterous virginoparous nymphs raised on artificial diet exposed to compound at 0.05 mM assessed as intrinsic reproduction rate of increase measured after 4 weeks (reference value: 0.00162 intrinsic reproduction rate of increase).
Experiment [3] has as its system Sitobion avenae. The experiment can be described thus: Insecticidal activity against 1 to 3 day old Sitobion avenae apterous virginoparous nymphs raised on artificial diet exposed to compound at 0.3 mM assessed as intrinsic reproduction rate of increase measured after 4 weeks (reference value: 0.00162 intrinsic reproduction rate of increase).
Experiment [4] relates to Sitobion avenae. The experiment is described as follows: Insecticidal activity against 1 to 3 day old Sitobion avenae apterous virginoparous nymphs raised on artificial diet exposed to compound at 0.1 mM assessed as intrinsic reproduction rate of increase measured after 4 weeks (reference value: 0.00162 intrinsic reproduction rate of increase).
For experiment [5], the system named is Sitobion avenae. The experiment is described as follows: Insecticidal activity against 1 to 3 day old Sitobion avenae apterous virginoparous nymphs raised on artificial diet exposed to compound at 8 mM assessed as intrinsic reproduction rate of increase measured after 4 weeks (reference value: 0.00162 intrinsic reproduction rate of increase).
Experiment [6] concerns Sitobion avenae. The experiment can be described thus: Insecticidal activity against 1 to 3 day old Sitobion avenae apterous virginoparous nymphs raised on artificial diet exposed to compound at 0.5 mM assessed as intrinsic reproduction rate of increase measured after 4 weeks (reference value: 0.00162 intrinsic reproduction rate of increase).

`COc1ccc2[nH]c(=O)oc2c1` [COIXOL]: the Activity in experiment [1] came to 0.00139; in experiment [2] it was 0.0015; in experiment [3] it was 0.00075; in experiment [4], 0.00296; in experiment [5], 0; in experiment [6] it was 0.00048.
